Laboratory results taken from US5854250A, “N-benzoylamino acid derivatives, pharmaceutical compositions containing them and process of preparing same” (Gyogyszerkutato Intezet KFT, priority 1997, dated 1998).

What was measured:
[1] = tested on: heart-damaging effect of vasopressin; settings: G. Razzaboni et al.; cited from earlier work
arachidonic acid = assay: iron(II)-dependent peroxidation of arachidonic acid; format: biochemical; settings: 37° C., in methanol; iron(II) initiated; thiobarbituric acid-reactive products, 535 nm; read-out: IC50 on arachidonic acid substrate
Description: A) The effect of compounds of general formula (I) on the iron(II)-dependentperoxidation of arachidonic acid
The peroxidation of arachidonic acid was measured by using the method of J. M. Braughler [J. Biol. Chem. 262, 10438 (1986)] at 37° C. in methanol. The compound to be tested was investigated at various concentrations. The peroxidation was initiated by adding 10^-4 mol of iron(II) (ferrous) ion (to result in a final volume of 0.5 ml).
(§1) The thiobarbituric acid-reactive products were determined by a modification of J. A. Buege [Meth. Enzymology 52, 302 (1978)] as follows. 0.55 ml of 2% thiobarbituric acid was added to the solution and the samples were boiled for 20 minutes. After cooling down, the samples were diluted with distilled water, then chloroform was added. After centrifuging the tubes at 400×g for 7 minutes, the quantity of the thiobarbituric acid-reactive products was determined in the supernatant by spectrophotometry at 535 nm. The effect of the compound to be tested was characterized by its IC50 value (i.e. the concentration resulting in an 50% inhibition). α-Tocopherol was used as reference compound.

brain homogenate = assay: iron(II) ion-dependent peroxidation of brain homogenate; format: biochemical, OFA rats; settings: rat brain homogenate in Krebs buffer; iron(II) initiated
Description: as §1
B) The effect of compounds of general formula (I) on the iron(II) ion-dependent peroxidation of brain homogenate
The measurement was carried out by using the method of J. M. Braughler [J. Biol. Chem. 262, 10438 (1987)].
In these experiments OFA rats with a body-weight of 150-200 g were decapitated and brain homogenates were prepared in Krebs buffer solution, then the Method A) was followed.

brain microsomes = assay: NADPH-dependent peroxidation of brain microsomes; format: biochemical, OFA rats; settings: rat brain microsomes, pH 6.8, 15 minutes, read-out: IC50 on brain microsome
Description: C) The effect of compounds of general formula (I) on the NADPH-dependent peroxidation of brain microsomes
This study was carried out by using the method of T. J. Player and A. A. Morton [J. Neurochem. 37, 422 (1981)].
OFA rats of 3 months age were decapitated and their whole brain was homogenized in ice-cold 0.25M saccharose solution. After centrifuging the homogenate at 15000×g for 10 minutes, the supernatant was decanted and the residue was further centrifuged at 78000×g for 60 minutes. The preparation having a concentration of 10-20 mg of protein/ml was divided to aliquots.
2) Measurement of the microsomal lipid peroxidatiorn
The measurement was carried out at […] in a reaction mixture with the following composition; 0.05M Tris maleate (pH 6.8) buffer, 1.0 mM KH2 SO4, 1.0 mM ADP, 0.2 mM FeCl3 and 0.4 mM NAOPH. NAOPH was not added to the reaction mixture used for determination of the baseline activity. The reaction was initiated […] by adding 0.5 mg of membrane protein and stopped after incubation for 15 minutes. Subsequently, the samples were centrifuged at 950×g for 20 minutes. The thiobarbituric acid-reactive products were determined in 1 ml of supernatant each by using the method of Z. Dunied [Biochem. Pharmacol. 32, 2283 (1983)].

small intestine section = assay: ischaemic intestine injury in rats; format: in vivo, Male CFY rats; settings: Rattus norvegicus; 25 mg/kg oral, 2 hours before the operation; read-out: Inhibition of ischaemia (%)
Description: A) Effect of compounds of the general formula (I) on the ischaemic intestine injury in rats
The method of D. A. Parks et al. [Surgery 92, 869 (1985)] was employed in these experiments.
Male CFY rats with an average body-weight of 250 g were starved for 24 hours before the surgical intervention but water was allowed ad libitum. The compound to be tested was orally administered in a 25 mg/kg dose by 2 hours before the operation.
The abdominal wall was opened along the median line under ether anaesthesia. The appropriate small intestine section was made ischaemic by ligating both small branches belonging to the pancreatico-duodenal artery. The shame-operated control animals were subjected only to the surgical intervention but their blood vessels were not ligated. The wound was closed and after 2 hours the abdominal cavity of the animals was again opened under ether anaesthesia. The thickened intestinal section was removed, its length and weight were determined and the significance was calculated by Duncan's test [D. B. Duncan: Biometrics 11, 1 (1955)] (with the weights corrected for a length of 20 mm) on the one hand, between the sham-operated and ischaemized vehicle-control animals; and on the other hand, between the ischaemized control animals and ischaemized animals treated with the compound to be tested. The edema-induced weight increase in the intestinal section was expressed as percentage.

[2] = tested on: dopamine level of corpus striatum; assay: neurotoxicity-inhibiting effect in mice (MPTP-induced dopamine depletion); format: in vivo, Male C-57 mice; settings: for Dopamine level: then 50 mg/kg
Description: C) Study on the neurotoxicity-inhibiting effect in mice This study was carried out by using the method of R. E. Heikkila at al. [Science 224, 1451 (1984)] or by some modification of this method being very suitable to investigate compounds which are potentially active against Parkinson's disease. […] MPTP). […] One hour after the last administration, 40 mg/kg of MPTP and then an additional amount of 50 mg/kg of the compound to be tested were intraperitoneally administered. The animals were killed after 4 days, their brain was removed and the corpus striatum was separated. The dopamine level of corpus striatum was determined by high performance liquid chromatography (HPLC).

[3] = acute oral toxicity in rats; settings: rat, in vivo
From the text: The toxicity of the compounds according to the invention was studied in rats.

[4] = tested on: reperfusion-induced arrhythmia; assay: reperfusion-induced arrhythmia in rats; format: in vivo, male SPRD rats; settings: for Average duration of VT/VF: one hour before, S ± SE/min
Description: B) Investigations on the model of reperfusion-induced arrhythmia in rats
In these experiments, the reperfusion-induced arrhythmia was developed in male SPRD rats weighing 400 g in average by using the method Lamontagne et al. [Fundam. Clin. Pharmacol. 3, 671 (1989)].
The chest of artificially respirated animals was opened under pentobarbital anaesthesia and a thread was implanted under the left coronary. After an equilibration period of 15 minutes, in the case of an arterial blood pressure of at least 60 Hgmm, a myocardial ischaemia was induced by ligating the coronary for 5 minutes. This was followed by a reperfusion lasting for 10 minutes. The duration of arrhythmia, ventricular tachycardia (VT) and ventricular fibrillation (VF), respectively, developed within 3 minutes after reperfusion were registered in a lead-II ECG.
The average durations of VT and VF, respectively related to 1 minute were determined and the number of deaths induced by arrhythmia was also registered.
The compound to be tested was orally administered one hour before the experiment.
The statistical data were calculated by using Duncan's test (duration of VT and VF, respectively) or the chi^2 test (number of deaths) [S. Bolton in: "Pharmaceutical Statistics", pages 169-173 (1990), Marcel Dekkar] following the variance analysis in relation to the vehicle control.

lipid peroxidation = settings: J. M. Braughler et al.; cited from earlier work
[5] = cited from earlier work
[6] = with MPTP treatment (+), 40 mg/kg, compound 100 mg/kg i.p. once daily for 3 days, a p < 0.01, b p < 0.05 vs MPTP control
[7] = without MPTP treatment (-), 100 mg/kg i.p. once daily for 3 days

| SMILES | IC50 (arachidonic acid) | IC50 (brain homogenate) | IC50 (brain microsomes) | inhibition in vivo at 25 mg/kg (small intestine section) | LD50 [3] | other results |
| --- | --- | --- | --- | --- | --- | --- |
| COc1cc(C(=O)NCCCCCC(=O)O)ccc1O [6-(4-hydroxy-3-methoxybenzoyl)aminohexanoic acid] | – | – | – | – | – | activity against the heart-damaging effect of vasopressin [1]: inactive |
| O=C(O)CCCCCCCCCCCNC(=O)c1cc(O)ccc1O [Example 24] | 40 µM | 4.8 µM | 37 µM | 63% | > 1000 mg/kg | Dopamine level, % of control ([2]; with MPTP treatment (+)): 24%; Dopamine level [2, 6]: 4,85 ± 1,7 μg/g tissue; Dopamine level, % of control ([2]; without MPTP treatment (-)): 102%; Dopamine level [2, 7]: 20,44 ± 0,6 μg/g tissue |
| O=C(O)CCCCCNC(=O)c1cc(O)ccc1O [Example 25] | 15 µM | 100 µM | 100 µM | 61% | > 1000 mg/kg | No. of deaths (lethal VT/VF) ([4]; 50 mg/kg p.o.): 4/8; Average duration of VT/VF ([4]; 50 mg/kg p.o.): 37.3 ± 5.7 S/min; Average duration of VT/VF ([4]; 100 mg/kg p.o., **p < 0.01): 28.0 ± 5.1 S/min; No. of deaths (lethal VT/VF) ([4]; 100 mg/kg p.o., *p < 0.05): 1/10 |
| CCCCCCCCNC(=O)CCCCCNC(=O)c1cc(O)ccc1O [Example 29] | 100 µM | 9 µM | 4.5 µM | 52% | > 1000 mg/kg | – |
| O=C(NCCCCCC(=O)N1CCCC1=O)c1cc(O)ccc1O [Example 30] | – | – | – | 70% | – | – |
| CCOC(=O)CCCCCCCCCCNC(=O)c1cc(O)ccc1O [Example 31, ethyl 11-[N-(2,5-dihydroxybenzoyl)amino]undecanoate] | 100 µM | 16 µM | 6.6 µM | – | – | – |
| CCOC(=O)CCCCCCCCCCCNC(=O)c1cc(O)ccc1O [Example 32] | 100 µM | 12 µM | 7.9 µM | – | – | – |
| O=C(NCCCCCC(=O)N1CCN(CCCc2ccccc2)CC1)c1cc(O)ccc1O [Example 34] | 100 µM | 40 µM | 8.6 µM | – | – | – |
| O=C(NCCCCCC(=O)N1CCN(c2cc(N3CCCC3)nc(N3CCCC3)n2)CC1)c1cc(O)ccc1O [Example 35] | 27 µM | 3.3 µM | 5.3 µM | 63% | > 1000 mg/kg | – |
| O=C(O)CCCNC(=O)c1cc(O)ccc1O [Example 36, 4-[N-(2,5-dihydroxybenzoyl)amino]butyric acid] | 3.4 µM | 100 µM | 100 µM | 76% | > 1000 mg/kg | No. of deaths (lethal VT/VF) ([4]; 50 mg/kg p.o.): 4/8; Average duration of VT/VF ([4]; 50 mg/kg p.o.): 33.0 ± 9.9 S/min; Average duration of VT/VF ([4]; 100 mg/kg p.o., **p < 0.01): 20.6 ± 6.3 S/min; No. of deaths (lethal VT/VF) ([4]; 100 mg/kg p.o., *p < 0.05): 0/10; Dopamine level, % of control ([2]; with MPTP treatment (+)): 33%; Dopamine level [2, 6]: 6,68 ± 1,0 μg/g tissue; Dopamine level, % of control ([2]; without MPTP treatment (-)): 103%; Dopamine level [2, 7]: 20,67 ± 0,5 μg/g tissue |
| O=C(O)CCCCNC(=O)c1cc(O)ccc1O [Example 37] | 31 µM | 100 µM | 100 µM | 73% | > 1000 mg/kg | – |
| COC(=O)CCCNC(=O)c1cc(O)ccc1O [Example 40, methyl 4-[N-(2,5-dihydroxybenzoyl)amino]butanoate] | – | – | – | 72% | – | – |
| COC(=O)CCCCCNC(=O)c1cc(O)ccc1O [Example 41, Methyl 6-{[N-(2,5-dihydroxybenzoyl)amino]hexanoate}] | – | – | – | 75% | – | – |
| C[C@@H]1C[C@H]2[C@@H]3CCC4=CC(=O)C=C[C@]4(C)C3=CC[C@]2(C)[C@H]1C(=O)CN1CCN(c2cc(N3CCCC3)nc(N3CCCC3)n2)CC1 [Example U74006F] | – | – | – | – | – | inhibition of lipid peroxidation (lipid peroxidation): strongly inhibited; in vivo activity [5]: proven |
| Cc1c(C)c2c(c(C)c1O)CCC(C)(CCCC(C)CCCC(C)CCCC(C)C)O2 (stereo not drawn) [α-Tocopherol, reference compound] | 1.5 µM | 7 µM | > 100 µM | – | – | Average duration of VT/VF ([4]; 100 mg/kg p.o., **p < 0.01): 33.1 ± 7.1 S/min; No. of deaths (lethal VT/VF) ([4]; 100 mg/kg p.o., *p < 0.05): 4/8; Average duration of VT/VF ([4]; 250 mg/kg p.o., **p < 0.01): 27.2 ± 7.1 S/min; No. of deaths (lethal VT/VF) ([4]; 250 mg/kg p.o., *p < 0.05): 1/8 |
